For test [1], the system named is 12F1 mAb. Nature of the test: Indirect competitive ELISA (ic-ELISA) of P5-5 and mutant peptides against 12F1 mAb. It counts as binding, mouse. The note with it: coating P5-5-OVA 5 μg/mL; free peptide competitor 0.61 ng/mL-20 μg/mL; pre-mixed with 12F1 mAb 37 °C 30 min; compared with WT P5-5 (Figure 5). The protocol: Indirect competitive ELISA (ic-ELISA): the inhibition ability of 12F1 mAb against P5-5 and its mutants was assessed through icELISA [16]. A coating antigen P5-5-OVA solution at a concentration of 5 μg/mL was prepared and dispensed (100 μL) into each well of a 96-well ELISA plate. The plates were then left to incubate at 4 °C overnight. Following washing, 5% (w/v) PBSM was added to each well and incubated at 37 °C for 2 h. The synthesized peptides of P5-5 and its variants were prepared as 1 mg/mL stock solution (dissolved in 0.01M PBS, pH 7.4). These peptides were then serially diluted in PBSM to concentrations of 20 μg/mL, 10 μg/mL, 5 μg/mL, 2.5 μg/mL, 1.25 μg/mL, 625 ng/mL, 312.5 ng/mL, 156.25 ng/mL, 78.13 ng/mL, 39.06 ng/mL, 19.53 ng/mL, 9.77 ng/mL, 4.88 ng/mL, 2.44 ng/mL, 1.22 ng/mL, and 0.61 ng/mL for the competitor in the ic-ELISA assay. Subsequently, 12F1 mAb was mixed thoroughly with the diluted solutions of P5-5 and its mutants at equal volume at 37 °C for 30 min incubation and reaction. Following this, each well was impressed by 100 μL of the mixture, which was then incubated at 37 °C for one hour. The succeeding stages, which included the addition of HRP-goat anti-mouse serum, TMB substrate solution, and stop solution, were carried out as described earlier. The measurement of the OD value was then taken under 450 nm. The IC50 values of the 12F1 monoclonal antibody against synthesized P5-5 and nine other mutant peptides were determined using the four-parameter logistic equations in Prism 9.0 GraphPad software (version 9.0 GraphPad Software), following the established methodology.
Background: ELISA stands for enzyme-linked immunosorbent assay.

The test system of test [2] is 12F1 mAb. Nature of the test: Indirect ELISA (iELISA) of 12F1 mAb on coated P5-5-BSA and P5-5 mutant-BSA. The note with it: peptide-BSA conjugate coated at 10 µg/mL; 12F1 mAb 1:2000; compared with WT P5-5 and negative control BSA; six repeated experiments (Figure 4). It counts as binding, mouse. On the procedure:
The P5-5 and mutants were conjugated to BSA by the EDC conjugating method. Firstly, the P5-5 and other 9 mutant peptide solutions (4 mg/mL in 0.1 M MES buffer, pH 4.7) were separately mixed with BSA solution (10 mg/mL in 0.1 M MES buffer, pH 4.7). Then, the reaction mixtures were all supplemented with 100 μL of EDC solution (10 mg/mL in deionized water) and incubated at 25 °C for 2 h to facilitate conjugation. The haptens were coupled to BSA at a molar ratio of 10:1 [14]. After a two-hour reaction, the resulting mixtures were subjected to dialysis against 0.01 M phosphate-buffered saline (PBS, pH 7.4) for 48 h. The final products were then stored at −20 °C for the following applications. The P5-5 and mutant conjugates were examined using native gel electrophoresis, and the concentration of the complete antigen was determined using the BCA protein assay kit.
Indirect ELISA (iELISA): To identify the key binding epitopes of the prepared mAb to the P5-5 epitope, P5-5-BSA, and P5-5 mutant-BSA, the antigens were coated onto 96-well plates at a concentration of 10 µg/mL [15]. Subsequently, purified 12F1 mAb diluted at 1:2000 in blocking buffer was added to the wells after blocking and washing. Following another washing step, goat anti-mouse IgG-HRP at a 1:5000 dilution in blocking buffer was added and incubated at 37 °C for 1 h. To commence color development, 100 μL of 3,3,5,5-Tetramethylbenzidine (TMB) solution was added to each well, followed by 100 μL of 2 M H2SO4. The absorbance at 450 nm was measured using a microplate reader.

For “NAALYEYLRQ [DA2, P5-5 mutant, position 2 (Asp) mutated to alanine]”, in the test on 12F1 mAb [1], the “antigen inhibitory capability / antibody binding in ic-ELISA” value is reported as “significantly reduced compared to the WT P5-5”. The “binding activity of 12F1 mAb (indirect ELISA, OD 450 nm)” value (“binding activity of 12F1 mAb” for short) in the test on 12F1 mAb [2] is given as “weak binding signals”.
As to “NDAAYEYLRQ [L4A, P5-5 mutant, position 4 (Leu) mutated to alanine]”, in the test on 12F1 mAb [1], the “antigen inhibitory capability / antibody binding in ic-ELISA” value is on record as “entirely lost their ability to bind antibodies”. The “binding activity of 12F1 mAb” value in the test with 12F1 mAb [2] is recorded as “significantly reduced to levels similar to the negative control”.
Turning to “NDALAEYLRQ [Y5A, P5-5 mutant, position 5 (Tyr) mutated to alanine]”, the “antigen inhibitory capability / antibody binding in ic-ELISA” value with 12F1 mAb [1] is reported as “significantly reduced compared to the WT P5-5”. Further, the “binding activity of 12F1 mAb” value in the test with 12F1 mAb [2] is “weak binding signals”.
Taken in the same sequence, the figures for “NDALYAYLRQ [E6A, P5-5 mutant, position 6 (Glu) mutated to alanine]” were “significantly reduced compared to the WT P5-5” and “weak binding signals”.
Taken in the same sequence, the figures for “NDALYEALRQ [Y7A, P5-5 mutant, position 7 (Tyr) mutated to alanine]” were “significantly reduced compared to the WT P5-5” and “weak binding signals”.
For “NDALYEYARQ [L8A, P5-5 mutant, position 8 (Leu) mutated to alanine]” the same measures were “entirely lost their ability to bind antibodies” and “significantly reduced to levels similar to the negative control”.

Source of the values: article PMC12383646, “Identification of Two Critical Contact Residues in a Pathogenic Epitope from Tetranectin for Monoclonal Antibody Binding and Preparation of Single-Chain Variable Fragments” (Biomolecules, 2025).
